We go through 1 molecule from paper PMC5908784, “Extracellular loops 2 and 3 of the calcitonin receptor selectively modify agonist binding and efficacy” (Biochemical Pharmacology, 2018).

Common to all, as to assay type: cell-based
Assay [1] has as its target T1, hCTR W361A (Homo sapiens, UniProt P30988, W361A).
T1 construct: expressed in transfected cells
T1 sequence (P30988 25-474 W361A): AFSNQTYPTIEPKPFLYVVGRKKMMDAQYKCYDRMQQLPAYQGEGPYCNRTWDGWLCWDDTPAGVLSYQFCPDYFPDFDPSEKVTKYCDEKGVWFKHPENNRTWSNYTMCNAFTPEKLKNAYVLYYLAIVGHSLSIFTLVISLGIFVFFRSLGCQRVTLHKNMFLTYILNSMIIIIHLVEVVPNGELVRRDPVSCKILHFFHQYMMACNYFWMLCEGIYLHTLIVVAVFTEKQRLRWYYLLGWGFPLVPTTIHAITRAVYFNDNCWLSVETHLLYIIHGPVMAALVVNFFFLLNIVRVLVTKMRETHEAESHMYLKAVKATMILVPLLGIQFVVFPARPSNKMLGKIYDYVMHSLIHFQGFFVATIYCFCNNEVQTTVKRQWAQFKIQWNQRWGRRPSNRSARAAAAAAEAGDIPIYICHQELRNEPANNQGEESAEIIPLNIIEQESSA
As to the kind of experiment: IP1 accumulation. Conditions: IP1 maximal response, mean ± S.E.M., SEM. The method, boiled down: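 HTRF IP-One readout of IP1 after 60 min ligand stimulation (LiCl present), cells seeded overnight. Normalized to 100 μM ATP max response. EC50/Emax via 3-parameter logistic curve fit.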

The target in assay [2] is T2, hCTR G369A (Homo sapiens, UniProt P30988, G369A).
T2 construct: c-Myc (N); expressed in transfected cells
T2 sequence (P30988 25-474 G369A): T1 sequence (P30988 25-474 W361A) with A337W, G345A
As to the kind of experiment: ERK1/2 phosphorylation. Conditions: pERK maximal response, CV1-FlpIn cells, mean ± S.E.M. The procedure: (§1) Cells (2.5 × 10^4 cells/well) were seeded into 96-well culture plates and incubated overnight. […] Data were normalized to the maximal response elicited by 10% FBS determined at 6 min.
(§2) Data were corrected for radioligand occupancy using the Cheng-Prusoff equation in Prism; as such data are reported as pKi. Emax and EC50 were estimated from concentration-response curves using with a 3-parameter logistic equation in Prism (v7). These values are a composite of functional affinity, efficacy and stimulus response coupling. […] Significance was accepted at P < 0.05.

Assay [3] concerns the target T3, hCTR I300A (Homo sapiens, UniProt P30988, I300A).
T3 construct: c-Myc (N); expressed in transfected cells
T3 sequence (P30988 25-474 I300A): T1 sequence (P30988 25-474 W361A) with I276A, A337W
The assay is described as follows: ERK1/2 phosphorylation. Conditions: pERK maximal response, CV1-FlpIn cells, mean ± S.E.M. As to the method:
as §1, §2

Assay [4] deals with T4, hCTR V293A (Homo sapiens, UniProt P30988, V293A).
T4 construct: c-Myc (N); expressed in transfected cells
T4 sequence (P30988 25-474 V293A): T1 sequence (P30988 25-474 W361A) with V269A, A337W
The assay is described as follows: ERK1/2 phosphorylation. Conditions: pERK maximal response, CV1-FlpIn cells, mean ± S.E.M. As to the method: as §1, §2

Assay [5] deals with T5, hCTR Y374A (Homo sapiens, UniProt P30988, Y374A).
T5 construct: c-Myc (N); expressed in transfected cells
T5 sequence (P30988 25-474 Y374A): T1 sequence (P30988 25-474 W361A) with A337W, Y350A
As to the kind of experiment: ERK1/2 phosphorylation. Conditions: pERK maximal response, CV1-FlpIn cells, mean ± S.E.M. As to the method:
as §1, §2

Residue numbers refer to the chain shown, from its start.

Take `CC(C)C[C@H](NC(=O)[C@H](CCCCN)NC(=O)CNC(=O)[C@H](CC(C)C)NC(=O)[C@@H](NC(=O)[C@@H]1CSSC[C@H](N)C(=O)N[C@@H](CO)C(=O)N[C@@H](CC(N)=O)C(=O)N[C@@H](CC(C)C)C(=O)N[C@@H](CO)C(=O)N[C@@H]([C@@H](C)O)C(=O)N1)C(C)C)C(=O)N[C@@H](CO)C(=O)N[C@@H](CCC(N)=O)C(=O)N[C@@H](CCC(=O)O)C(=O)N[C@@H](CC(C)C)C(=O)N[C@@H](Cc1c[nH]cn1)C(=O)N[C@@H](CCCCN)C(=O)N[C@@H](CC(C)C)C(=O)N[C@@H](CCC(N)=O)C(=O)N[C@H](C(=O)N[C@@H](Cc1ccc(O)cc1)C(=O)N1CCC[C@H]1C(=O)N[C@@H](CCCNC(=N)N)C(=O)N[C@H](C(=O)N[C@@H](CC(N)=O)C(=O)N[C@H](C(=O)NCC(=O)N[C@@H](CO)C(=O)NCC(=O)N[C@H](C(=O)N1CCC[C@H]1C(N)=O)[C@@H](C)O)[C@@H](C)O)[C@@H](C)O)[C@@H](C)O` [sCT]: the maximal effect (Emax) (usually the size of the effect at its maximum, as opposed to the concentration needed) amounted to 108 ± 6% in assay [1]; 115 ± 4% in assay [2]; 63 ± 3% in assay [3]; 135 ± 12% in assay [4]; 99 ± 5% in assay [5].
